The values below come from PubChem BioAssay AID1918995 (Molecular Pharmacology Branch, DTP, NCI, 2023).

This assay relates to 324938-238-R-J1-PDC complex spheroid growth, % test/control. The assay is described as follows: Anticancer human tumor 324938-238-R-J1-PDC patient-derived bladder carcinoma cell line growth inhibition [AhR]. Particulars: for viability, T/C: stronger effect = lower value; for IC50: curve of compound. The text has this: Multicellular complex tumor spheroid response to aryl hydrocarbon receptor antagonists in combination with a variety of drugs and investigational agents in selected tumor cell lines
The current study was undertaken to assess response to aryl hydrocarbon receptor antagonists in combination with standard-of-care drugs and investigational agents in solid tumor complex spheroid models. Complex spheroids include a stromal component modeled by human endothelial cells (HUVEC) and fibroblasts modeled by human mesenchymal stem cells (MSCs). The concentration ranges selected for each drug and investigational agent were based upon clinically achievable concentrations if the clinical Cmax of the agent was known.
Compounds. The drugs and investigational agents: BAY 2416964 (NSC825713), GNF351 (NSC835774), CH-223191 (NSC835775), CPI-455 (NSC825282), aza-TdCyd (NSC777586), decitabine (NSC127716), belinostat (NSC758774), entinostat (NSC756642), pevonedistat (NSC761192), tazemetostat (NSC777109), talazoparib (NSC765396), olaparib (NSC753686), selinexor (NSC780203), nedisertib (M3814, NSC802822), bortezomib (NSC756655), venetoclax (NSC766270), doxorubicin (NSC123127), elimusertib (BAY189344, NSC800525), ceralasertib (AZD6738, NSC777638), TAK-243 (NSC785004), alisertib (NSC759677), etoposide (NSC141540), topotecan (NSC609699), eribulin (NSC707389), gemcitabine (NSC613327), carboplatin (NSC241240), cisplatin (NSC119875), and SN-38 (NSC673596) were obtained from the National Cancer Institute (NCI) Developmental Therapeutics Program Chemical Repository (32). The FDA-approved anticancer drug set is available from the Developmental Therapeutics Program at https://dtp.cancer.gov/organization/dscb/obtaining/available plates.htm. […] The stock solutions were prepared in dimethyl sulfoxide (DMSO, Sigma-Aldrich, St. Louis, MO, cat. D2650), except for the platinum compounds which were prepared in saline (Quality Biological, Gaithersburg, MD, cat. 114-055-101), at 800-fold the tested concentration and stored at -70 degrees C prior to their use. All drugs and investigational agents were tested over a range starting from a high concentration at or near the clinical Cmax and decreasing in half-log increments. If the clinical Cmax for an agent had not been determined, the highest concentration tested was 10 microM (Table 1).
Cell Culture. All cells were maintained in an incubator at 37 degrees C and 5% CO2 with 95% humidity. The PDC lines were cultured according to standard operating procedures established by the NCI PDMR (https://pdmr.cancer.gov). Briefly, all PDCs were thawed and cultured in Matrigel-coated flasks prepared with a working solution of 1X Ham's F-12 nutrient mix, without supplementation (Invitrogen, Waltham, MA, cat. 11765054), 100 U/mL penicillin-streptomycin (Invitrogen, cat. 15140122), and 2.5% Matrigel (Corning Inc., Corning, NY, cat. 354248) for the first three passages. All PDCs were cultured in complete DMEM/F-12 media containing advanced DMEM/F-12 (Invitrogen, cat. 12634028), 4.9% defined fetal bovine serum, heat inactivated (HyClone Laboratories Inc., Logan, UT, cat. SH30070.03HI), 389 ng/mL hydrocortisone (Sigma-Aldrich, cat. H4001), 9.7 ng/mL human EGF recombinant protein (Invitrogen, cat. PHG0313), 23.4 microg/mL adenine (Sigma-Aldrich, cat. A2786), 97.3 U/mL penicillin-streptomycin (Invitrogen, cat. 15140122), 1.9 mM L-glutamine (Invitrogen, cat. 25030081), and 9.7 microM Y-27632 dihydrochloride (Tocris Bioscience, Bristol, United Kingdom, cat. 1254). The PDCs were cultured in complete DMEM/F12 media without 10 microM Y-27632 dihydrochloride for at least two passages prior to the screen. The established cell lines NCI-H1341 and […] were cultured in DMEM/F-12, HEPES (Invitrogen, cat. 11330032), 5% defined fetal bovine serum (HyClone Laboratories Inc., cat. SH30070.03), ITS premix universal culture supplement [insulin (5 microg/mL), transferrin (5 microg/mL), and selenious acid (5 ng/mL)] […]

Values joined by “and” are separate entries in the source; they are usually repeats but may differ in a detail not shown here. Identical values can stand only once. A value given as a limit tells only on which side of the number the result lay.
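Further: spheroids exposed to agents for seven days before viability read.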

With `CC(C)CC(NC(=O)C(Cc1ccccc1)NC(=O)c1cnccn1)B(O)O` (centres undefined), the IC50 is 4.84 nM and 5.31 nM and 1.8 nM. The viability, T/C (compound 0.000949 µM) was 87.9% and 116% and 93.5%. For the setting “compound 0.003 µM”, the viability, T/C is 85.2% and 98.1% and 15.2%. For the same compound, under “compound 0.00949 µM”, the viability, T/C is 0.63% and 1.24% and 0.3%. The viability, T/C (compound 0.03 µM) is 0.28% and 0.36% and 0.27%. Moreover, the viability, T/C (compound 0.0949 µM) was 0.78% and 0.3% and 0.27%. Further, under “compound 0.3 µM”, the viability, T/C is 0.76% and 0.41% and 0.31%.
Consider `CC1(C)CCC(CN2CCN(c3ccc(C(=O)NS(=O)(=O)c4ccc(NCC5CCOCC5)c([N+](=O)[O-])c4)c(Oc4cnc5[nH]ccc5c4)c3)CC2)=C(c2ccc(Cl)cc2)C1`, for which the IC50 is over 10000 nM. The viability, T/C (compound 0.0316 µM) was 87.5% and 102% and 105%. Where the note is “compound 0.1 µM”, the viability, T/C is 125% and 98.4% and 101%. Further, the viability, T/C (compound 0.316 µM) was 93.4% and 103% and 109%. The viability, T/C (compound 1 µM) was 82.8% and 94.3% and 101%. Also, the viability, T/C (compound 3.16 µM) was 104% and 90.7% and 87.7%. Besides, the viability, T/C (compound 10 µM) is 114% and 59.1% and 52.6%.
As for `CC1COCCN1c1cc(-c2ccnn2C)c2ccnc(-c3ccn[nH]3)c2n1` (centres undefined), the viability, T/C is 98.3% and 108% and 107% (compound 0.00316 µM); 92.6% and 112% and 110% (compound 0.01 µM); 67.5% and 99.7% and 66.6% (compound 0.0316 µM); 55.1% and 76.3% and 45% (compound 0.1 µM); 83.7% and 48.9% and 31.1% (compound 0.316 µM); 68.1% and 27.7% and 19.9% (compound 1 µM).
Take `CC1COCCN1c1cc(C2(S(C)(=N)=O)CC2)nc(-c2ccnc3[nH]ccc23)n1` (centres undefined): the IC50 is > 10000 nM and 5910 nM and 2940 nM. The viability, T/C (compound 0.0316 µM) is 93% and 98% and 106%. Moreover, where the note is “compound 0.1 µM”, the viability, T/C was 114% and 112% and 116%. In addition, the viability, T/C (compound 0.316 µM) was 90% and 106% and 85.7%. For the same compound, where the note is “compound 1 µM”, the viability, T/C was 93.9% and 90.2% and 86.4%. Where the note is “compound 3.16 µM”, the viability, T/C is 76.7% and 70.4% and 43.9%. In addition, where the note is “compound 10 µM”, the viability, T/C was 77.1% and 33.6% and 25.4%.
Take `CCN(c1cc(-c2ccc(CN3CCOCC3)cc2)cc(C(=O)NCc2c(C)cc(C)[nH]c2=O)c1C)C1CCOCC1`: the IC50 is over 3000 nM. The viability, T/C (compound 0.00949 µM) is 93.5% and 100% and 111%. The viability, T/C (compound 0.03 µM) is 109% and 106% and 117%. Besides, for the setting “compound 0.0949 µM”, the viability, T/C was 106% (2×) and 107%. For the same compound, where the note is “compound 0.3 µM”, the viability, T/C is 83% and 100% and 116%. For the same compound, the viability, T/C (compound 0.949 µM) is 85% and 104% and 113%. For the same compound, the viability, T/C (compound 3 µM) was 124% and 97.5% and 105%.
In the case of `CC[C@@]1(O)C(=O)OCc2c1cc1n(c2=O)Cc2cc3c(CN(C)C)c(O)ccc3nc2-1`, the IC50 was > 100 nM and 21.3 nM and 20.1 nM. The viability, T/C (compound 0.000316 µM) was 96% and 93.1% and 103%. For the same compound, the viability, T/C (compound 0.001 µM) was 96.2% and 106% and 108%. Also, the viability, T/C (compound 0.00316 µM) is 66.5% and 84.8% and 87.8%. Under “compound 0.01 µM”, the viability, T/C is 82.1% and 74.2% and 73.3%. In addition, for the setting “compound 0.0316 µM”, the viability, T/C was 125% and 37.5% and 35.2%. Further, for the setting “compound 0.1 µM”, the viability, T/C is 106% and 17.9% and 16.8%.
As for `CCc1c2c(nc3ccc(O)cc13)-c1cc3c(c(=O)n1C2)COC(=O)[C@]3(O)CC`, the viability, T/C is, setting by setting: (compound 0.000949 µM) 80.8% and 57.3% and 38.8%; (compound 0.003 µM) 71% and 52.4% and 28.9%; (compound 0.00949 µM) 70.2% and 18.2% and 19%; (compound 0.03 µM) 90.4% and 15.3% and 17.9%; (compound 0.0949 µM) 78.3% and 16.9% and 17%; (compound 0.3 µM) 69.4% and 14.9% and 15.4%.
On to `COc1cc(C2c3cc4c(cc3C(OC3OC5COC(C)OC5C(O)C3O)C3COC(=O)C23)OCO4)cc(OC)c1O` (centres undefined), for which the viability, T/C is, setting by setting: (compound 0.0316 µM) 118% and 99.2% and 96.2%; (compound 0.1 µM) 101% and 103% and 86.9%; (compound 0.316 µM) 113% and 51.8% and 53%; (compound 1 µM) 97% and 31.6% and 32.9%; (compound 3.16 µM) 78.7% and 31.4% and 29.9%; (compound 10 µM) 95.9% and 19% and 20%.
On to `COc1cc(Nc2ncc3c(n2)-c2ccc(Cl)cc2C(c2c(F)cccc2OC)=NC3)ccc1C(=O)O`, for which the viability, T/C runs as follows: (compound 0.0316 µM) 101% and 74% and 71.8%; (compound 0.1 µM) 111% and 56% and 46%; (compound 0.316 µM) 68.3% and 32.7% and 27.7%; (compound 1 µM) 92% and 36% and 28.2%; (compound 3.16 µM) 92.5% and 38.2% and 27.3%; (compound 10 µM) 75.8% and 39.1% and 32.8%.

One may read the viability, T/C as the ratio of treated to control. One may read the IC50 as the concentration needed to halve the response being measured.
